Three compounds from ChEMBL document CHEMBL5715954, “Silencing c-Myc translation as a therapeutic strategy through targeting PI3Kδ and CK1ε in hematological malignancies” (Blood, 2017) can be followed below.

What all share (parameters): scale not given: the % may be the effect or the level left
The target in test [1] is Serine/threonine-protein kinase B-raf (Homo sapiens) (UniProt P15056). Description: Inhibition of human BRAF assessed as enzyme activity at 1 uM using MEK1 (K97R) as substrate preincubated for 20 mins followed by [gamma-33P]-ATP addition and measured after 120 mins by radiometric Hot-SpotSM Kinase assay relative to control.
Sequence of Serine/threonine-protein kinase B-raf (Homo sapiens) (P15056 whole entry): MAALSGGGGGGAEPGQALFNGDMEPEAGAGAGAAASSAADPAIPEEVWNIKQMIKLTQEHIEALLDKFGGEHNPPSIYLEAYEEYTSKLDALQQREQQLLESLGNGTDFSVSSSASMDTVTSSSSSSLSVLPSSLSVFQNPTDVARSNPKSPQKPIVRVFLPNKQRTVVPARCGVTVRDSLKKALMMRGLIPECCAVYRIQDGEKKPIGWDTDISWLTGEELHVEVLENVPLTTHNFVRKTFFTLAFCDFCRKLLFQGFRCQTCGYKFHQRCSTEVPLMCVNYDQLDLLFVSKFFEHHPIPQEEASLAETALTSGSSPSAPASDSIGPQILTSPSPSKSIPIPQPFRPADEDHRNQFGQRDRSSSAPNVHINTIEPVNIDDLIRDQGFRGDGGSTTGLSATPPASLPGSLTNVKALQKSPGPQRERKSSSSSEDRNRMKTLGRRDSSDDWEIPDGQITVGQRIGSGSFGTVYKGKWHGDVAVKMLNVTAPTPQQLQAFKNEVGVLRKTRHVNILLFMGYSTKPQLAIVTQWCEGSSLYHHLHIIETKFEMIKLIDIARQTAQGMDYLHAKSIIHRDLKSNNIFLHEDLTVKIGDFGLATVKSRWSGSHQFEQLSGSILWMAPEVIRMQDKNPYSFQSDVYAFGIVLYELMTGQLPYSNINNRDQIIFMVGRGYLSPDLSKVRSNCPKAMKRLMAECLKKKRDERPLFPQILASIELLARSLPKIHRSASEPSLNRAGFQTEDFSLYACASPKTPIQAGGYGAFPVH
The target in test [2] is Calcium/calmodulin-dependent protein kinase type 1 (Homo sapiens) (UniProt Q14012). Description: Inhibition of human CAMK1a assessed as enzyme activity at 1 uM using KKALRRQETVDAL as substrate preincubated for 20 mins followed by [gamma-33P]-ATP addition and measured after 120 mins by radiometric Hot-SpotSM Kinase assay relative to control.
Sequence of Calcium/calmodulin-dependent protein kinase type 1 (Homo sapiens) (Q14012 whole entry, looked up): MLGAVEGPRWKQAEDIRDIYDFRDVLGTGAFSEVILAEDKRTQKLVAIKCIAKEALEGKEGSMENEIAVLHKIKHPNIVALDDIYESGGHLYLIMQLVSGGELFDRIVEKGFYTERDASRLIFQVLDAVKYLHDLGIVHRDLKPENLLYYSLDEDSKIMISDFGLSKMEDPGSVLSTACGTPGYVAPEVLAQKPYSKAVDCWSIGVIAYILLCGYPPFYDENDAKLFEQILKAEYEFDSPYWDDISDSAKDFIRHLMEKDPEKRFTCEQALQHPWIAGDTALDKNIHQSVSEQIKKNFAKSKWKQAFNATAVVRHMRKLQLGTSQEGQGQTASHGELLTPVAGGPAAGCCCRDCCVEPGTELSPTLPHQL
The target in test [3] is CDK9/Cyclin K (Homo sapiens) (UniProt P50750+O75909). Nature of the test: Inhibition of human CDK9/cyclin K assessed as enzyme activity at 1 uM using KTFCGTPEYLAPEVRREPRILSEEEQEMFRDFDYIADWC as substrate preincubated for 20 mins followed by [gamma-33P]-ATP addition and measured after 120 mins by radiometric Hot-SpotSM Kinase assay relative to control. In kind it is protein-complex assay.

Test [4] has as its target T1, Serine/threonine-protein kinase Chk1 (Homo sapiens) (UniProt O14757).
T1 sequence (whole entry): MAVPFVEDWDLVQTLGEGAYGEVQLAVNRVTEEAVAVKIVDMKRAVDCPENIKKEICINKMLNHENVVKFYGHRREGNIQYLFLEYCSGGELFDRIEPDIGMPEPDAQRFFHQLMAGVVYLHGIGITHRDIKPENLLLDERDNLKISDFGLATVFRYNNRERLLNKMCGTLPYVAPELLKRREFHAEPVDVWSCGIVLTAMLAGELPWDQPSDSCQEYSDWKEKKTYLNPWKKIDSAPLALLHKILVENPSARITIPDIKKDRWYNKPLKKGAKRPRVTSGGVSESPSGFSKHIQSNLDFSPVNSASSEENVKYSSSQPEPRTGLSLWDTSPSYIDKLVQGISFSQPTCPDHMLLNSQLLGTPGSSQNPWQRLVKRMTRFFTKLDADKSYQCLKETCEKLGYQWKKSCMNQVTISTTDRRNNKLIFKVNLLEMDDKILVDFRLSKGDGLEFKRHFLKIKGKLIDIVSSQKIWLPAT
Nature of the test: Inhibition of human CHK1 assessed as enzyme activity at 1 uM using KKKVSRSGLYRSPSMPENLNRPR as substrate preincubated for 20 mins followed by [gamma-33P]-ATP addition and measured after 120 mins by radiometric Hot-SpotSM Kinase assay relative to control.

The target of test [5] is G protein-coupled receptor kinase 5 (Homo sapiens) (UniProt P34947). Description: Inhibition of human GRK5 assessed as enzyme activity at 1 uM using casein as substrate preincubated for 20 mins followed by [gamma-33P]-ATP addition and measured after 120 mins by radiometric Hot-SpotSM Kinase assay relative to control.
For test [6], the target named is G protein-coupled receptor kinase 6 (Homo sapiens) (UniProt P43250). Description: Inhibition of human GRK6 assessed as enzyme activity at 1 uM using casein as substrate preincubated for 20 mins followed by [gamma-33P]-ATP addition and measured after 120 mins by radiometric Hot-SpotSM Kinase assay relative to control.
Sequence of G protein-coupled receptor kinase 6 (Homo sapiens) (P43250 whole entry, looked up): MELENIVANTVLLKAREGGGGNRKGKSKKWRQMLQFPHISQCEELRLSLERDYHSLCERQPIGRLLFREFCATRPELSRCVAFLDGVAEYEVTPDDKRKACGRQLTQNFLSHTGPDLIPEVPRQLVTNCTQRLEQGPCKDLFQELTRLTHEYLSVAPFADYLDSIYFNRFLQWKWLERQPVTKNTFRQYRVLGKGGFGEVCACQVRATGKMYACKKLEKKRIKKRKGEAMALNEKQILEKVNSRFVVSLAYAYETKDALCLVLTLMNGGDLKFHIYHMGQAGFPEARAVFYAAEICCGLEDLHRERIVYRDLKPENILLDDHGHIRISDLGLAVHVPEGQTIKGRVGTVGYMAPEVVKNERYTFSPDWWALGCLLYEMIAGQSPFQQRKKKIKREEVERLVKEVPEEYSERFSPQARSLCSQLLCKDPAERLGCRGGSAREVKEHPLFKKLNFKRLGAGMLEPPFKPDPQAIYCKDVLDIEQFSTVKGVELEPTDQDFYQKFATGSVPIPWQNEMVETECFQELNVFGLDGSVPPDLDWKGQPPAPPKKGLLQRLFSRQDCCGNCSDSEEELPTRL
The target of test [7] is Homeodomain-interacting protein kinase 3 (Homo sapiens) (UniProt Q9H422). Description: Inhibition of human HIPK3 assessed as enzyme activity at 1 uM using myelin basic protein as substrate preincubated for 20 mins followed by [gamma-33P]-ATP addition and measured after 120 mins by radiometric Hot-SpotSM Kinase assay relative to control.
Sequence of Homeodomain-interacting protein kinase 3 (Homo sapiens) (Q9H422 whole entry, looked up): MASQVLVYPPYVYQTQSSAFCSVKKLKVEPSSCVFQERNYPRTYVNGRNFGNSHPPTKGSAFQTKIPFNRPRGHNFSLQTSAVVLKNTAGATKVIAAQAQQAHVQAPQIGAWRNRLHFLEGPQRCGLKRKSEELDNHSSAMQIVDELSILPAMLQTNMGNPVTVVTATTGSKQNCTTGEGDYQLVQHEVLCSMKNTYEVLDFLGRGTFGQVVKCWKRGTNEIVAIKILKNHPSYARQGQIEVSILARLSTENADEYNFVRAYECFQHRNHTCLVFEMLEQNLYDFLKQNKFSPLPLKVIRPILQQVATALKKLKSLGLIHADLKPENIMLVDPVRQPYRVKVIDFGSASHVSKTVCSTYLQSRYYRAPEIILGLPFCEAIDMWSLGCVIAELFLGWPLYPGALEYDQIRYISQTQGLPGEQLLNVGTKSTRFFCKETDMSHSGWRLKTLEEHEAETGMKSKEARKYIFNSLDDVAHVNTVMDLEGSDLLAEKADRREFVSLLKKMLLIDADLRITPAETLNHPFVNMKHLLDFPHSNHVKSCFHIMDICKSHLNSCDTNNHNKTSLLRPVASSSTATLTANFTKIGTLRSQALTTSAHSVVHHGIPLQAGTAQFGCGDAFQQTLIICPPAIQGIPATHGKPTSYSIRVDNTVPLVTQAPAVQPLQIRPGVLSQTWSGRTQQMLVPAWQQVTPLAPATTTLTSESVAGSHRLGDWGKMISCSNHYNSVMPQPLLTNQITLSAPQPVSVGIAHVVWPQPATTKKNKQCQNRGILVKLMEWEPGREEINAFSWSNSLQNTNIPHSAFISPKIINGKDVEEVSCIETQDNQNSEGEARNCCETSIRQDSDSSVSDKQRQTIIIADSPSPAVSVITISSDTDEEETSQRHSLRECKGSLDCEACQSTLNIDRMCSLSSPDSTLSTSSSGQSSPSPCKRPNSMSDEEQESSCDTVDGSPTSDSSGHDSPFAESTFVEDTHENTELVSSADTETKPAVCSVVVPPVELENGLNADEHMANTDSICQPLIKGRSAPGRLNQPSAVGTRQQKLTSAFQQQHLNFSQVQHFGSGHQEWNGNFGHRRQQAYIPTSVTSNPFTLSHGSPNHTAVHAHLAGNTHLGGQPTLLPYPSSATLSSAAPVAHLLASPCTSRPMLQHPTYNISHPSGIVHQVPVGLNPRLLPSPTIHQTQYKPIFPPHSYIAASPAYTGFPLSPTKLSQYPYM
For test [8], the target named is T2, Tyrosine-protein kinase ITK/TSK (Homo sapiens) (UniProt Q08881).
T2 sequence (whole entry): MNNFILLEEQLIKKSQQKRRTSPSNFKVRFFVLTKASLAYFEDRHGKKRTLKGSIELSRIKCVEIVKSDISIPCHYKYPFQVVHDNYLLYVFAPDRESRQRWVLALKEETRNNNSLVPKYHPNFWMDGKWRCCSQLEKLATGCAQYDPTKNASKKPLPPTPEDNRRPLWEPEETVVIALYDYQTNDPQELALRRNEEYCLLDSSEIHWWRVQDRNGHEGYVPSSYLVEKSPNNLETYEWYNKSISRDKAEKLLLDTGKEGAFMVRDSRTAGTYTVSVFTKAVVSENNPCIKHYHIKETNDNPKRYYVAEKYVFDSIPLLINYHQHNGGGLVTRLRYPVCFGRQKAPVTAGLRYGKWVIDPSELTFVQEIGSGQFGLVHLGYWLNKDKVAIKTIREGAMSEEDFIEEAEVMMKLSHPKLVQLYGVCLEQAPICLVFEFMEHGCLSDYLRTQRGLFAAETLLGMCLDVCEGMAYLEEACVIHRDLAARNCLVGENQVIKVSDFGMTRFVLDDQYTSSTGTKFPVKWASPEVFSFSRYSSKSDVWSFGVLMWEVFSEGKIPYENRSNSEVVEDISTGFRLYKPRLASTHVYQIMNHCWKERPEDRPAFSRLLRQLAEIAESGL
Description: Inhibition of human ITK assessed as enzyme activity at 1 uM using myelin basic protein as substrate preincubated for 20 mins followed by [gamma-33P]-ATP addition and measured after 120 mins by radiometric Hot-SpotSM Kinase assay relative to control.

Test [9] deals with LIM domain kinase 2 (Homo sapiens) (UniProt P53671). Description: Inhibition of human LIMK2 assessed as enzyme activity at 1 uM using cofilin 2 as substrate preincubated for 20 mins followed by [gamma-33P]-ATP addition and measured after 120 mins by radiometric Hot-SpotSM Kinase assay relative to control.
In test [10] the target is Serine/threonine-protein kinase PAK 3 (Homo sapiens) (UniProt O75914). Description: Inhibition of human PAK3 assessed as enzyme activity at 1 uM using RRRLSFAEPG as substrate preincubated for 20 mins followed by [gamma-33P]-ATP addition and measured after 120 mins by radiometric Hot-SpotSM Kinase assay relative to control.
Sequence of Serine/threonine-protein kinase PAK 3 (Homo sapiens) (O75914 whole entry, looked up): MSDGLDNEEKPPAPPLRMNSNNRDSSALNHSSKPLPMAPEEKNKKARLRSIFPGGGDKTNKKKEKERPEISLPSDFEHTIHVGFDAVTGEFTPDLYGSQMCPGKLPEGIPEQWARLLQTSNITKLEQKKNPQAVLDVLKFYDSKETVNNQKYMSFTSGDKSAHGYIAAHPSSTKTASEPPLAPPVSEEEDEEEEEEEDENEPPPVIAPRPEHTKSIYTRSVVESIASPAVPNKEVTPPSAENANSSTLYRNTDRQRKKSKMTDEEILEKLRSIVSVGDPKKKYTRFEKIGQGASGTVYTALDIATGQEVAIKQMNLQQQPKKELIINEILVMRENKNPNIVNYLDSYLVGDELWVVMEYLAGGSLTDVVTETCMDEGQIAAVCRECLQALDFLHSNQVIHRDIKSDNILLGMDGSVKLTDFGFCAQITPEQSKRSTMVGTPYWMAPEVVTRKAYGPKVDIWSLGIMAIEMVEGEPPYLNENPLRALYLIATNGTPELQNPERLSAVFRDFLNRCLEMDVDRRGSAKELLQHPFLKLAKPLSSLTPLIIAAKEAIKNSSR
Test [11] deals with Ribosomal protein S6 kinase alpha-1 (Homo sapiens) (UniProt Q15418). Nature of the test: Inhibition of human RSK1 assessed as enzyme activity at 1 uM using KKLNRTLSVA as substrate preincubated for 20 mins followed by [gamma-33P]-ATP addition and measured after 120 mins by radiometric Hot-SpotSM Kinase assay relative to control.
Sequence of Ribosomal protein S6 kinase alpha-1 (Homo sapiens) (Q15418 whole entry): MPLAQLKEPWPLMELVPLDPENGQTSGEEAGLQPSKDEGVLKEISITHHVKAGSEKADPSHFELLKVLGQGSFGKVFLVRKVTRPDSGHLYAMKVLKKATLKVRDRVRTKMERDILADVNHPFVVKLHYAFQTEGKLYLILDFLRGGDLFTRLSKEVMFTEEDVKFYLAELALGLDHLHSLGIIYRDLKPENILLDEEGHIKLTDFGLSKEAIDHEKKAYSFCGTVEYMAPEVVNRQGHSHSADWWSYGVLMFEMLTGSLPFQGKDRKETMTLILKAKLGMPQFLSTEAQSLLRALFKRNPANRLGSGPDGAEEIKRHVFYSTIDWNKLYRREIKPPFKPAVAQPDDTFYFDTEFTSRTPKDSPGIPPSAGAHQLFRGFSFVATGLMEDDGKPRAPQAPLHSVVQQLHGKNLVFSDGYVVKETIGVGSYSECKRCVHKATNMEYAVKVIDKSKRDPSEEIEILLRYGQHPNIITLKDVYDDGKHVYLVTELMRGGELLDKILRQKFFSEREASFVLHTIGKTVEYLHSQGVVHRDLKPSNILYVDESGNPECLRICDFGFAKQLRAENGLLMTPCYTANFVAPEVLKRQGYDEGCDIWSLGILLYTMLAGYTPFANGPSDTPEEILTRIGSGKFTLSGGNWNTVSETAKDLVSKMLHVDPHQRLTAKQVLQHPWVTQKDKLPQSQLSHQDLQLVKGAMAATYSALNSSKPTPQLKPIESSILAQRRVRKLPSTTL
Test [12] deals with SRSF protein kinase 1 (Homo sapiens) (UniProt Q96SB4). Description: Inhibition of human SRPK1 assessed as enzyme activity at 1 uM using GRSRSRSRSR as substrate preincubated for 20 mins followed by [gamma-33P]-ATP addition and measured after 120 mins by radiometric Hot-SpotSM Kinase assay relative to control.
Sequence of SRSF protein kinase 1 (Homo sapiens) (Q96SB4 whole entry): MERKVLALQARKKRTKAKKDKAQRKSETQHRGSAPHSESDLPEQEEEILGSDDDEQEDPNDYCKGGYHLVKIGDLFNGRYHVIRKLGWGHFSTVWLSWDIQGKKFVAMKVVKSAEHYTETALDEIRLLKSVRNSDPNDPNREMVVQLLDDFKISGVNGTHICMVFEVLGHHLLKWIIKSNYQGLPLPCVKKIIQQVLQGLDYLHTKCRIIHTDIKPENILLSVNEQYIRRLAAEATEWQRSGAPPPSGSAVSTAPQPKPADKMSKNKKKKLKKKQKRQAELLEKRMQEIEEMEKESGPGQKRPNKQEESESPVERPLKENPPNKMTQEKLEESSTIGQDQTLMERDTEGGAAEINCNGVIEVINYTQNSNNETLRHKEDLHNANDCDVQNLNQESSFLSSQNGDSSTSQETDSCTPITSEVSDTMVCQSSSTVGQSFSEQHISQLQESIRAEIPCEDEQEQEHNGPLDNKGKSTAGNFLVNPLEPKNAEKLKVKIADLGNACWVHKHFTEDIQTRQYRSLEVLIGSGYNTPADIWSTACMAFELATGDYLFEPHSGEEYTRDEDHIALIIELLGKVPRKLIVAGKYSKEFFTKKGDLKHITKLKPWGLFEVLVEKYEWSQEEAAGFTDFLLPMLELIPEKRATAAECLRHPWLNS
The target in test [13] is Serine/threonine-protein kinase 16 (Homo sapiens) (UniProt O75716). Description: Inhibition of human STK16 assessed as enzyme activity at 1 uM using myelin basic protein as substrate preincubated for 20 mins followed by [gamma-33P]-ATP addition and measured after 120 mins by radiometric Hot-SpotSM Kinase assay relative to control.
Test [14] addresses Death-associated protein kinase 3 (Homo sapiens) (UniProt O43293). Description: Inhibition of human ZIPK assessed as enzyme activity at 1 uM using KKLNRTLSFAEPG as substrate preincubated for 20 mins followed by [gamma-33P]-ATP addition and measured after 120 mins by radiometric Hot-SpotSM Kinase assay relative to control.

For `C[C@H](Nc1ncnc2nc[nH]c12)c1cc2cccc(Cl)c2c(=O)n1-c1ccccc1`, the Activity in test [1] stood at 85.9%; in test [2], 103%; in test [3] it was 93.1%; in [4], 94.1%; in test [5] it was 106%; in test [6], 96.9%. Further, the Activity was 105% in [7]; 94.5% in test [8]; 104% in test [9]; 95.5% in test [10]; 100% in test [11]; 94% in test [12]. Also, the Activity stood at 106% in test [13] and 107% in test [14].

`CC[C@H](Nc1ncnc2[nH]cnc12)c1nc2cccc(F)c2c(=O)n1-c1ccccc1`: the Activity amounted to 87.6% in test [1]; 96.8% in test [2]; 91.5% in test [3]; 93.2% in [4]; 104% in test [5]; 99.5% in [6]. The Activity stood at 108% in test [7]; 102% in [8]; 96% in test [9]; 94.5% in test [10]; 101% in test [11]; 92.7% in test [12]. For the same compound, the Activity came out at 105% in test [13] and 99.3% in [14].

`CC(C)Oc1ccc(-c2nn([C@@H](C)c3oc4ccc(F)cc4c(=O)c3-c3cccc(F)c3)c3ncnc(N)c23)cc1F` [UMBRALISIB]: the Activity stood at 92.2% in test [1]; 99.6% in test [2]; 88.8% in [3]; 95% in test [4]; 111% in test [5]; 102% in test [6]. Further, the Activity in test [7] was 103%; in [8], 97.3%; in test [9], 98.6%; in [10], 96.5%; in test [11], 104%; in test [12] it was 90.6%. Besides, the Activity came to 108% in test [13] and 103% in test [14].
